Assay results as given in patent US20100137248A1, “BORON-CONTAINING COMPOUNDS, USES AND PREPARATION THEREOF” (DINOTEC INC., priority 2007, published 2010).

Test system: pain and/or inflammation in volunteers
Test: Tests on various subjects using Composition 2 (pain and/or inflammation)
Assay type: in vivo
Details: past medication of volunteers; testimony
Experimental: Composition 2 was tested on several subjects so as to verify its activity as anti-inflammatory agent and/or analgesic. As it can be seen from Table 1, test subjects having various inflammations or pain have been treated with Composition 2. In each case, a small amount of Composition 2, in the form of a cream, was applied to inflamed skin area by means of a short gentle rub.

CC(=O)Oc1ccccc1C(=O)O [Aspirin, acetylsalicylic acid]
gastric side effect reported by volunteers: severe gastric burning sensation
